{
  "source": "patent US4204065A",
  "about": "“Soft quaternary surface active agents and method of using same” (Interx Research Corporation, priority 1978, dated 1980)",
  "key": {"S. aureus": {"system": "S. aureus", "assay": "microbe, parasite or virus in culture", "assay_type": "cell-based", "conditions": "Staphylococcus aureus, pH 7, read-out: Minimal inhibitory concentration (MIC), S. aureus"}, "S. pyogenes": {"system": "S. pyogenes", "assay": "Minimal inhibitory concentration (MIC), S. pyogenes", "assay_type": "cell-based", "conditions": "Streptococcus pyogenes; 0.1 M NaH2PO4, pH 7.0"}, "B. subtilis": {"system": "B. subtilis", "assay": "Minimal inhibitory concentration (MIC), B. subtilis", "assay_type": "cell-based", "conditions": "Bacillus subtilis; 0.1 M NaH2PO4, pH 7.0"}, "S. typhimirum": {"system": "S. typhimirum", "assay": "Minimal inhibitory concentration (MIC), S. typhimirum", "assay_type": "cell-based", "conditions": "0.1 M NaH2PO4, pH 7.0"}, "P. aeruginosa": {"system": "P. aeruginosa", "assay": "Minimal inhibitory concentration (MIC), P. aeruginosa", "assay_type": "cell-based", "conditions": "Pseudomonas aeruginosa; 0.1 M NaH2PO4, pH 7.0"}, "in vivo [1]": {"assay": "in vivo", "conditions": "mouse, iv"}, "White Male Mice MCR-ICR": {"system": "White Male Mice MCR-ICR", "conditions": "oral; for Mortality 24 hrs. / Mortality 7 days: deaths of 10 animals per dose"}, "[2]": {"system": "MCR-ICR White Swiss Male Mice", "conditions": "mouse; for Mortality 24 hrs. / Mortality 7 days: in vivo"}, "in vivo [3]": {"assay": "in vivo", "conditions": "mouse, po"}, "[4]": {"assay": "Saturated solubility (footnote of MIC table)", "assay_type": "physicochemical", "conditions": "0.1 M NaH2PO4, pH 7.0; footnote b; read-out: Approximately the saturated solubility", "from_the_text": "^b Approximately the saturated solubility."}, "mouse [5]": {"system": "mouse", "conditions": "cited from earlier work"}, "mouse [6]": {"system": "mouse", "conditions": "cited from earlier work", "remark": "listed apart in the source"}, "rat": {"system": "rat", "conditions": "cited from earlier work"}},
  "note": "“Also recorded” adds a separate entry of the source. Like-named read-outs stand apart in the source and are kept apart here.",
  "data": [
    {"compound": "CCCCCCCC(=O)OC[n+]1ccccc1", "note": "[Compound 2, n-Octanoyloxymethylpyridinium chloride]", "values": [
      {"measurement": "MIC", "setting": "S. aureus", "result": 529, "unit": "µg/mL"},
      {"measurement": "MIC", "setting": "S. pyogenes", "result": 529, "unit": "µg/mL"},
      {"measurement": "MIC", "setting": "B. subtilis", "result": 529, "unit": "µg/mL"},
      {"measurement": "MIC", "setting": "S. typhimirum", "result": 1060, "unit": "µg/mL"},
      {"measurement": "MIC", "setting": "P. aeruginosa", "result": 1060, "unit": "µg/mL"}
    ]},
    {"compound": "CCCCCCCCCCCC(=O)OC[n+]1ccn(C)c1", "note": "[IRx-1229]", "values": [
      {"measurement": "LD50 at 24 h", "setting": "in vivo [1]", "result": "100 to 133", "unit": "mg/kg"},
      {"measurement": "Deaths per day, Day 1", "setting": "White Male Mice MCR-ICR; 1.68 g/kg", "result": 0},
      {"measurement": "Deaths per day, Day 2", "setting": "White Male Mice MCR-ICR; 1.68 g/kg", "result": 1},
      {"measurement": "Mortality 24 hrs.", "setting": "White Male Mice MCR-ICR; 1.68 g/kg", "result": 0},
      {"measurement": "Mortality 7 days", "setting": "White Male Mice MCR-ICR; 1.68 g/kg", "result": 1},
      {"measurement": "Deaths per day, Day 1", "setting": "White Male Mice MCR-ICR; 3.35 g/kg", "result": 2},
      {"measurement": "Deaths per day, Day 3", "setting": "White Male Mice MCR-ICR; 3.35 g/kg", "result": 1},
      {"measurement": "Mortality 24 hrs.", "setting": "White Male Mice MCR-ICR; 3.35 g/kg", "result": 2},
      {"measurement": "Mortality 7 days", "setting": "White Male Mice MCR-ICR; 3.35 g/kg", "result": 3},
      {"measurement": "Deaths per day, Day 1", "setting": "White Male Mice MCR-ICR; 5.00 g/kg", "result": 7},
      {"measurement": "Mortality 24 hrs.", "setting": "White Male Mice MCR-ICR; 5.00 g/kg", "result": 7},
      {"measurement": "Mortality 7 days", "setting": "White Male Mice MCR-ICR; 5.00 g/kg", "result": 7},
      {"measurement": "Symptoms: time of death", "setting": "[2]; IV", "result": "Death either occurred immediately after injection or several day later, never between 5 minutes and 24 hours after injection"},
      {"measurement": "Symptoms: cause and signs of immediate death", "setting": "[2]; IV, death immediately following injection", "result": "circulatory collapse because of too large an injection or precipitation of the compound in the bloodstream; also recorded: death was preceded by convulsions"},
      {"measurement": "Mortality 24 hrs.", "setting": "[2]; 133 mg/kg", "result": "1/3"},
      {"measurement": "Mortality 7 days", "setting": "[2]; 133 mg/kg", "result": "1/3"},
      {"measurement": "Mortality 24 hrs.", "setting": "[2]; iv, 35.09 mg/kg", "result": "0/5"},
      {"measurement": "Mortality 7 days", "setting": "[2]; iv, 35.09 mg/kg", "result": "0/5"},
      {"measurement": "Mortality 24 hrs.", "setting": "[2]; iv, 42.5 mg/kg", "result": "0/5"},
      {"measurement": "Mortality 7 days", "setting": "[2]; iv, 42.5 mg/kg", "result": "0/5"},
      {"measurement": "Mortality 24 hrs.", "setting": "[2]; iv, 81.25 mg/kg", "result": "1/2"},
      {"measurement": "Mortality 7 days", "setting": "[2]; iv, 81.25 mg/kg", "result": "1/2"},
      {"measurement": "Mortality 24 hrs.", "setting": "[2]; iv, 87.73 mg/kg", "result": "2/4"},
      {"measurement": "Mortality 7 days", "setting": "[2]; iv, 87.73 mg/kg", "result": "2/4"},
      {"measurement": "Mortality 24 hrs.", "setting": "[2]; iv, 102.47 mg/kg", "result": "0/8"},
      {"measurement": "Mortality 7 days", "setting": "[2]; iv, 102.47 mg/kg", "result": "1/8"},
      {"measurement": "Mortality 24 hrs.", "setting": "[2]; iv, 199.5 mg/kg", "result": "1/1"},
      {"measurement": "Mortality 7 days", "setting": "[2]; iv, 199.5 mg/kg", "result": "1/1"},
      {"measurement": "LD50 at 24 h", "setting": "in vivo [3]", "result": 4300, "unit": "mg/kg"},
      {"measurement": "LD50 at 168 h", "setting": "in vivo [3]", "result": 4110, "unit": "mg/kg"}
    ]},
    {"compound": "CCCCCCCCCCCC(=O)OC[n+]1ccn(C)c1", "note": "[Compound 6]", "values": [
      {"measurement": "MIC", "setting": "S. aureus", "result": 4.1, "unit": "µg/mL"},
      {"measurement": "MIC", "setting": "S. pyogenes", "result": 2, "unit": "µg/mL"},
      {"measurement": "MIC", "setting": "B. subtilis", "result": 16.3, "unit": "µg/mL"},
      {"measurement": "MIC", "setting": "S. typhimirum", "result": 65.3, "unit": "µg/mL"},
      {"measurement": "MIC", "setting": "P. aeruginosa", "result": 261, "unit": "µg/mL"}
    ]},
    {"compound": "CCCCCCCCCCCCCC(=O)OC[n+]1ccn(C)c1", "note": "[Compound 7]", "values": [
      {"measurement": "MIC", "setting": "S. aureus", "result": "< 2.2", "unit": "µg/mL"},
      {"measurement": "MIC", "setting": "S. pyogenes", "result": "> 2.2", "unit": "µg/mL"},
      {"measurement": "MIC", "setting": "B. subtilis", "result": 4.4, "unit": "µg/mL"},
      {"measurement": "MIC", "setting": "S. typhimirum", "result": 69.7, "unit": "µg/mL"},
      {"measurement": "MIC", "setting": "P. aeruginosa", "result": "> 1120", "unit": "µg/mL"}
    ]},
    {"compound": "CCCCCCCCCCCCCCCC(=O)OC[n+]1ccccc1", "note": "[Compound 5, n-Hexadecanoyloxymethylpyridinium chloride]", "values": [
      {"measurement": "MIC", "setting": "S. aureus", "result": 16.7, "unit": "µg/mL"},
      {"measurement": "MIC", "setting": "S. pyogenes", "result": 268, "unit": "µg/mL"},
      {"measurement": "MIC", "setting": "B. subtilis", "result": 1070, "unit": "µg/mL"},
      {"measurement": "MIC", "setting": "S. typhimirum", "result": 1070, "unit": "µg/mL"},
      {"measurement": "MIC", "setting": "P. aeruginosa", "result": 1070, "unit": "µg/mL"}
    ]},
    {"compound": "CCCCCCCCCCCCCCCC(=O)OC[n+]1ccn(C)c1", "note": "[Compound 8]", "values": [
      {"measurement": "MIC", "setting": "S. aureus", "result": 1.3, "unit": "µg/mL"},
      {"measurement": "MIC", "setting": "S. pyogenes", "result": "> 42.4", "unit": "µg/mL"},
      {"measurement": "MIC", "setting": "B. subtilis", "result": "> 42.4", "unit": "µg/mL"},
      {"measurement": "solubility", "setting": "[4]", "result": "~42.4", "unit": "µg/mL"},
      {"measurement": "MIC", "setting": "S. typhimirum", "result": "> 42.4", "unit": "µg/mL"},
      {"measurement": "MIC", "setting": "P. aeruginosa", "result": "> 42.4", "unit": "µg/mL"}
    ]},
    {"compound": "CCCCCCCCCCCCCCCC[n+]1ccccc1", "note": "[Compound 1, cetylpyridinium chloride]", "values": [
      {"measurement": "LD50 oral", "setting": "mouse [5]", "result": 108, "unit": "mg/kg"},
      {"measurement": "LD50 IP", "setting": "mouse [6]", "result": 10, "unit": "mg/kg"},
      {"measurement": "LD50 IV", "setting": "rat", "result": 30, "unit": "mg/kg"}
    ]},
    {"compound": "CCCCCCCCCCCC(=O)OC[n+]1ccccc1", "note": "[Compound 3, n-Dodecanoyloxymethylpyridinium chloride]", "values": [
      {"measurement": "MIC", "setting": "S. aureus", "result": 8.9, "unit": "µg/mL"},
      {"measurement": "MIC", "setting": "S. pyogenes", "result": 71.5, "unit": "µg/mL"},
      {"measurement": "MIC", "setting": "B. subtilis", "result": 143, "unit": "µg/mL"},
      {"measurement": "MIC", "setting": "S. typhimirum", "result": 35.8, "unit": "µg/mL"},
      {"measurement": "MIC", "setting": "P. aeruginosa", "result": "< 2.2", "unit": "µg/mL"}
    ]},
    {"compound": "CCCCCCCCCCCCCC(=O)OC[n+]1ccccc1", "note": "[Compound 4, n-Tetradecanoyloxymethylpyridinium chloride]", "values": [
      {"measurement": "MIC", "setting": "S. aureus", "result": 8.1, "unit": "µg/mL"},
      {"measurement": "MIC", "setting": "S. pyogenes", "result": 4.2, "unit": "µg/mL"},
      {"measurement": "MIC", "setting": "B. subtilis", "result": 8.3, "unit": "µg/mL"},
      {"measurement": "MIC", "setting": "S. typhimirum", "result": 133, "unit": "µg/mL"},
      {"measurement": "MIC", "setting": "P. aeruginosa", "result": "> 1060", "unit": "µg/mL"}
    ]}
  ]
}
